# Test results as given in patent publication US10947188B2, “Small molecule ferroptosis inducers” (THE TRUSTEES OF COLUMBIA UNIVERSITY IN THE CITY OF NEW YORK, priority 2016, dated 2021).
# Experiments:
# HT-1080 = assay: Modulatory profiling: Alamar Blue viability, lethal compound cotreated with death modulator (EC50, AUC); format: cell-based; design: AUC, modulator HT.3MA / AUC, modulator HT.ALLN / AUC HT.ATA / AUC HT.ActD / AUC HT.BHA / AUC HT.BHT / AUC HT.BocD / AUC HT.CHX / AUC HT.Co2+ / AUC HT.DPQ / AUC HT.EGTA / AUC HT.Lmim / AUC HT.NAD+ / AUC HT.Nec-1 / AUC HT.SP600125 / AUC HT.TLCK / AUC HT.U0126: unit not given beside the values; settings: for AUC HT.ATA: HT-1080, modulator ATA; for AUC HT.ActD: HT-1080, modulator ActD; for AUC HT.BHA: HT-1080, modulator BHA; for AUC HT.BHT: HT-1080, modulator BHT; for AUC HT.BocD: HT-1080, modulator BocD; for AUC HT.CHX: HT-1080, modulator CHX; for AUC HT.Co2+: HT-1080, modulator Co2+; for AUC HT.CspA: HT-1080, modulator CspA; for AUC HT.DPQ: HT-1080, modulator DPQ; for AUC HT.EGTA: HT-1080, modulator EGTA; for AUC HT.Gd3+: HT-1080, modulator Gd3+; for AUC HT.LNAME: HT-1080, modulator LNAME; for AUC HT.Lmim: HT-1080, modulator Lmim; for AUC HT.NAD+: HT-1080, modulator NAD+; for AUC HT.NMMA: HT-1080, modulator NMMA; for HT.atoc (AUC) / HT.bCarotene (AUC) / HT.deferox (AUC) / HT.digoxin (AUC) / HT.trolox (AUC) / HT.zVAD (AUC): HT-1080; for HT.atoc (AUC): modulator atoc; for HT.bCarotene (AUC): modulator bCarotene; for HT.deferox (AUC): modulator deferox; for HT.digoxin (AUC): modulator digoxin; for HT.trolox (AUC): modulator trolox; for HT.zVAD (AUC): modulator zVAD; for AUC HT.Nec-1: HT-1080, modulator Nec-1; for AUC HT.Pepstatin: HT-1080, modulator Pepstatin; for AUC HT.SP600125: HT-1080, modulator SP600125; for AUC HT.TLCK: HT-1080, modulator TLCK; for AUC HT.U0126: HT-1080, modulator U0126; for AUC, modulator HT.3MA / AUC, modulator HT.ALLN: HT-1080 cells, modulatory profile value (AUC); for AUC, modulator HT.3MA: lethal compound cotreated with modulator 3MA; for AUC, modulator HT.ALLN: lethal compound cotreated with modulator ALLN; for AUC HT.BHA: reference of the scale not given here; for AUC HT.EGTA: reference of the scale not given here
# BJeLR = assay: as above; format: cell-based, human; design: AUC, modulator BJ.Gd3+ / AUC, modulator BJ.LNAME / AUC, modulator BJ.Lmin / AUC, modulator BJ.3MA / AUC, modulator BJ.ALLN / AUC, modulator BJ.Boc D / AUC, modulator BJ.CHX / AUC, modulator BJ.Co2+ / AUC, modulator BJ.Nec-1 / AUC, modulator BJ.Pepstatin / AUC, modulator BJ.TLCK / AUC, modulator BJ.atoc / AUC, modulator BJ.trolox / AUC, modulator BJ.zVAD: unit not given beside the values; settings: BJeLR cells, modulatory profile value (AUC); for AUC, modulator BJ.3MA: lethal compound cotreated with modulator 3MA; for AUC, modulator BJ.ALLN: lethal compound cotreated with modulator ALLN; for AUC, modulator BJ.Boc D: lethal compound cotreated with modulator Boc D; for AUC, modulator BJ.CHX: lethal compound cotreated with modulator CHX; for AUC, modulator BJ.Co2+: lethal compound cotreated with modulator Co2+; for AUC, modulator BJ.DPQ: lethal compound cotreated with modulator DPQ; for AUC, modulator BJ.Gd3+: lethal compound cotreated with modulator Gd3+; for AUC, modulator BJ.LNAME: lethal compound cotreated with modulator LNAME; for AUC, modulator BJ.Lmin/NAD+: lethal compound cotreated with modulator Lmin/NAD+; for AUC, modulator BJ.Lmin: lethal compound cotreated with modulator Lmin; for AUC, modulator BJ.NAD+: lethal compound cotreated with modulator NAD+; for AUC, modulator BJ.NMMA: lethal compound cotreated with modulator NMMA; for AUC, modulator BJ.Nec-1: lethal compound cotreated with modulator Nec-1; for AUC, modulator BJ.Pepstatin: lethal compound cotreated with modulator Pepstatin; for AUC, modulator BJ.TLCK: lethal compound cotreated with modulator TLCK; for AUC, modulator BJ.atoc: lethal compound cotreated with modulator atoc; for AUC, modulator BJ.trolox: lethal compound cotreated with modulator trolox; for AUC, modulator BJ.zVAD: lethal compound cotreated with modulator zVAD; for AUC, modulator BJ.3MA: reference of the scale not given here; for AUC, modulator BJ.ALLN: reference of the scale not given here; for AUC, modulator BJ.Boc D: reference of the scale not given here; for AUC, modulator BJ.CHX: reference of the scale not given here; for AUC, modulator BJ.Co2+: reference of the scale not given here; for AUC, modulator BJ.DPQ: reference of the scale not given here; for AUC, modulator BJ.Gd3+: reference of the scale not given here; for AUC, modulator BJ.LNAME: reference of the scale not given here; for AUC, modulator BJ.NAD+: reference of the scale not given here; for AUC, modulator BJ.NMMA: reference of the scale not given here; for AUC, modulator BJ.Nec-1: reference of the scale not given here; for AUC, modulator BJ.Pepstatin: reference of the scale not given here; for AUC, modulator BJ.TLCK: reference of the scale not given here
smiles,measurement,setting,value
COc1c2c(cc3c1C(CC(=O)/C=C/c1ccccc1)[N+](C)(C)CC3)OCO2 (centres unmarked) [CIL77],AUC HT.ATA,HT-1080,0.05492
same,AUC HT.ActD,HT-1080,0.0959
same,AUC HT.BHA,HT-1080,−0.008714
same,AUC HT.BHT,HT-1080,−0.07998
same,AUC HT.BocD,HT-1080,−0.02828
same,AUC HT.CHX,HT-1080,0.1436
same,AUC HT.Co2+,HT-1080,0.1261
same,AUC HT.CspA,HT-1080,−0.05791
same,AUC HT.DPQ,HT-1080,0.003496
same,AUC HT.EGTA,HT-1080,−0.00345
same,AUC HT.Gd3+,HT-1080,−0.0368
same,AUC HT.LNAME,HT-1080,0.01693
same,AUC HT.Lmim,HT-1080,0.02573
same,AUC HT.NAD+,HT-1080,0.003357
same,AUC HT.NMMA,HT-1080,−0.01509
same,HT.atoc (AUC),HT-1080,0.02076
same,HT.bCarotene (AUC),HT-1080,−0.005078
same,HT.deferox (AUC),HT-1080,0.09145
same,HT.digoxin (AUC),HT-1080,−0.01405
same,HT.trolox (AUC),HT-1080,−0.01064
same,HT.zVAD (AUC),HT-1080,0.02554
same,"AUC, modulator BJ.3MA",BJeLR,−0.05728
same,"AUC, modulator BJ.ALLN",BJeLR,0.01826
same,"AUC, modulator BJ.Boc D",BJeLR,0.05622
same,"AUC, modulator BJ.CHX",BJeLR,0.2548
same,"AUC, modulator BJ.Co2+",BJeLR,0.1866
same,"AUC, modulator BJ.DPQ",BJeLR,−0.009273
same,"AUC, modulator BJ.Gd3+",BJeLR,−0.007344
same,"AUC, modulator BJ.LNAME",BJeLR,0.03349
same,"AUC, modulator BJ.Lmin/NAD+",BJeLR,0.04982
same,"AUC, modulator BJ.Lmin",BJeLR,−0.04848
same,"AUC, modulator BJ.NAD+",BJeLR,−0.05677
same,"AUC, modulator BJ.NMMA",BJeLR,−0.02771
same,"AUC, modulator BJ.Nec-1",BJeLR,−0.06543
same,"AUC, modulator BJ.Pepstatin",BJeLR,0.07338
same,"AUC, modulator BJ.TLCK",BJeLR,−0.05565
COc1ccccc1/C=C/C1(C(=O)NC2CCCC2)CC(=O)N1c1ccc(F)cc1 (centres unmarked) [CIL1],AUC HT.ATA,HT-1080,−0.0478
same,AUC HT.ActD,HT-1080,−0.04057
same,AUC HT.BHA,HT-1080,0.02691
same,AUC HT.BHT,HT-1080,−0.0849
same,AUC HT.BocD,HT-1080,−0.01644
same,AUC HT.CHX,HT-1080,0.09163
same,AUC HT.Co2+,HT-1080,0.2048
same,AUC HT.CspA,HT-1080,−0.04542
same,AUC HT.DPQ,HT-1080,0.04203
same,AUC HT.EGTA,HT-1080,−0.006602
same,AUC HT.Gd3+,HT-1080,−0.03215
same,AUC HT.LNAME,HT-1080,0.03977
same,AUC HT.Lmim,HT-1080,0.08631
same,AUC HT.NAD+,HT-1080,0.07889
same,AUC HT.NMMA,HT-1080,−0.0482
same,AUC HT.Nec-1,HT-1080,0.02294
same,AUC HT.Pepstatin,HT-1080,0.001474
same,AUC HT.SP600125,HT-1080,−0.04919
same,AUC HT.TLCK,HT-1080,0.04647
same,AUC HT.U0126,HT-1080,0.1491
same,HT.atoc (AUC),HT-1080,0.216
same,HT.bCarotene (AUC),HT-1080,−0.02846
same,HT.deferox (AUC),HT-1080,0.08359
same,HT.digoxin (AUC),HT-1080,−0.003809
same,HT.trolox (AUC),HT-1080,0.02477
same,HT.zVAD (AUC),HT-1080,−0.0551
same,"AUC, modulator HT.3MA",HT-1080,−0.001968
same,"AUC, modulator HT.ALLN",HT-1080,0.1053
same,"AUC, modulator BJ.3MA",BJeLR,0.0947
same,"AUC, modulator BJ.ALLN",BJeLR,−0.03319
same,"AUC, modulator BJ.Boc D",BJeLR,−0.0465
same,"AUC, modulator BJ.CHX",BJeLR,−0.08681
same,"AUC, modulator BJ.Co2+",BJeLR,0.09572
same,"AUC, modulator BJ.DPQ",BJeLR,−0.01655
same,"AUC, modulator BJ.Gd3+",BJeLR,−0.001577
same,"AUC, modulator BJ.LNAME",BJeLR,−0.02103
same,"AUC, modulator BJ.Lmin/NAD+",BJeLR,−0.01947
same,"AUC, modulator BJ.Lmin",BJeLR,−0.0142
same,"AUC, modulator BJ.NAD+",BJeLR,0.03941
same,"AUC, modulator BJ.NMMA",BJeLR,−0.02498
same,"AUC, modulator BJ.Nec-1",BJeLR,0.0816
same,"AUC, modulator BJ.Pepstatin",BJeLR,0.07639
same,"AUC, modulator BJ.TLCK",BJeLR,0.01375
same,"AUC, modulator BJ.atoc",BJeLR,0.05385
same,"AUC, modulator BJ.trolox",BJeLR,0.08302
same,"AUC, modulator BJ.zVAD",BJeLR,−0.04705
COc1ccc(N(C(=O)CCl)C(C(=O)NCCc2ccccc2)c2cccs2)cc1 (centres unmarked) [DPI4],AUC HT.ATA,HT-1080,−0.03622
same,AUC HT.ActD,HT-1080,−0.006831
same,AUC HT.BHA,HT-1080,0.285
same,AUC HT.BHT,HT-1080,0.2486
same,AUC HT.BocD,HT-1080,−0.01407
same,AUC HT.CHX,HT-1080,−0.008699
same,AUC HT.Co2+,HT-1080,0.1741
same,AUC HT.CspA,HT-1080,5.8801E−05
same,AUC HT.DPQ,HT-1080,0.05528
same,AUC HT.EGTA,HT-1080,0.0361
same,AUC HT.Gd3+,HT-1080,−0.02121
same,AUC HT.LNAME,HT-1080,0.01547
same,AUC HT.Lmim,HT-1080,0.3086
same,AUC HT.NAD+,HT-1080,0.02441
same,AUC HT.NMMA,HT-1080,−0.0007723
same,AUC HT.Nec-1,HT-1080,0.05135
same,AUC HT.Pepstatin,HT-1080,−0.003295
same,AUC HT.SP600125,HT-1080,−0.04284
same,AUC HT.TLCK,HT-1080,0.1761
same,AUC HT.U0126,HT-1080,0.3423
same,HT.atoc (AUC),HT-1080,0.3523
same,HT.bCarotene (AUC),HT-1080,−0.01264
same,HT.deferox (AUC),HT-1080,0.4095
same,HT.digoxin (AUC),HT-1080,−0.06343
same,HT.trolox (AUC),HT-1080,0.3151
same,HT.zVAD (AUC),HT-1080,−0.04451
same,"AUC, modulator HT.3MA",HT-1080,−0.001458
same,"AUC, modulator HT.ALLN",HT-1080,−0.1648
same,"AUC, modulator BJ.3MA",BJeLR,0.0813
same,"AUC, modulator BJ.ALLN",BJeLR,−0.07596
same,"AUC, modulator BJ.Boc D",BJeLR,−0.0206
same,"AUC, modulator BJ.CHX",BJeLR,−0.04482
same,"AUC, modulator BJ.Co2+",BJeLR,0.116
same,"AUC, modulator BJ.DPQ",BJeLR,0.02148
same,"AUC, modulator BJ.Gd3+",BJeLR,0.06864
same,"AUC, modulator BJ.LNAME",BJeLR,0.00317
same,"AUC, modulator BJ.Lmin/NAD+",BJeLR,0.1443
same,"AUC, modulator BJ.Lmin",BJeLR,0.1443
same,"AUC, modulator BJ.NAD+",BJeLR,0.03153
same,"AUC, modulator BJ.NMMA",BJeLR,0.004961
same,"AUC, modulator BJ.Nec-1",BJeLR,0.1295
same,"AUC, modulator BJ.Pepstatin",BJeLR,0.03966
same,"AUC, modulator BJ.TLCK",BJeLR,0.1612
same,"AUC, modulator BJ.atoc",BJeLR,0.2611
same,"AUC, modulator BJ.trolox",BJeLR,0.2547
same,"AUC, modulator BJ.zVAD",BJeLR,−0.02179
